{"source": "patent US20030118983A1", "about": "“Rapid screening procedure for inflammation mediators” (priority 2000, published 2003)", "type_in_all_cases": "cell-based, human", "key": {"PMNs [1]": {"tested_on": "PMNs", "assay": "Heme protein effect on DCFH oxidation in unstimulated, LPS and TNFα-, and PMA-stimulated PMNs, with or without NOS inhibitors, SOD or antioxidants", "conditions": "10,000 U/mL; 26,300 μg/mL, 30 μg/mL oxyMb"}, "PMNs [2]": {"tested_on": "PMNs", "assay": "Extracellular O2.− produced by PMA-stimulated PMNs (cytochrome c reduction)", "protocol": "PMNs (200,000/200 μl HBSS) were treated with various concentrations of oxyMb or bovine liver Cu, Zn SOD (0.05-1000 μg/mL) in a 340 ATTC 96-well reader (SLT-Labinstruments, Salzburg, Austria) and activated with PMA. O2.^− production was determined by measuring reduction of cytochrome c, at 550 nm."}, "PMNs [3]": {"tested_on": "PMNs", "assay": "Heme protein effect on DCFH oxidation in unstimulated, LPS and TNFα-, and PMA-stimulated PMNs, with or without NOS inhibitors, SOD or antioxidants", "conditions": "for increase in DCFH oxidation compared with 0 and 1000 μg/mL oxyMb: 30 μg/mL oxyMb", "protocol": "DCFH-loaded PMNs were incubated with and without N-methyl-L-arginine (L-NMMA; 5 mM; Calbiochem, San Diego, Calif.) and heme proteins (0.3-1000 μg/mL) at 37 ° C. for 10 minutes. […] In unstimulated and LPS and TNFα -stimulated PMNs, the treatments were oxyMb, or oxyMb+L-NMMA (5 mM). […] RBC cell membranes were ruptured using a micro-ultrasonic cell disrupter, Kontes, Janke and Kukel Gmbh and CO. (Stauten, Germany). […] OxyMb was prepared by mixing excess sodium dithionite with Mb for 1 h and inorganic sulfur compounds were removed by dialyzing in HBSS buffer for 3 h. Percent iron in the ferric state in non-dithionite treated oxyMb or oxyHb was not assessed. […] […] cross-linked Hb was a gift from Walter Reed Army Institute of Research. […] Also, various concentrations of bovine liver Cu, Zn SOD (30-10,000 U/mL; 8-2640 μg/mL) and 30 μg/mL oxyMb were incubated with PMA-stimulated PMNs pretreated with and without L-NMMA. Flow cytometric measurements of oxidant-induced DCF fluorescence were performed as described above."}, "PMNs [4]": {"tested_on": "PMNs", "assay": "OxyHb-FLEX bound to and internalized into PMNs (flow cytometry)", "conditions": "concentrations ≧30 μg/mL", "protocol": "OxyHb bound to and internalized into PMNs was determined using fluorescein-conjugated oxyHb (Molecular Probes, Eugene, Oreg.). […] Flow cytometric measurements were performed as described above. To visualize intracellular levels of oxyHb-FLEX, whole cell and Z-plane images of PMNs were collected using an Axiovert 135 inverted confocal microscope (Zeiss, Thornwood, N.Y., and Atto Instruments, Rockville, Md.)."}, "PMNs [5]": {"tested_on": "PMNs", "assay": "DNA strand breaks in PMA-activated PMNs (tdt-mediated dUTP nick end labeling)", "conditions": "oxyMb 30 μg/mL, PMA 2 h", "protocol": "OxyMb effect on DNA strand breaks in PMA-activated PMNs was measured by flow cytometry using the tdt-mediated dUTP nick end labeling assay (In Situ Cell Death Detection Kit, Fluorescein, Boehringer Mannheim, Indianapolis, Ind.) according to manufacturer's instructions. PMNs were incubated with and without NMMA (5 mM) and oxyMb (1-1000 μg/mL) for 10 min at 37° C. PMNs were subsequently treated with PMA (200 nM) for 2 h at 37° C. Label solutions without terminal transferase or with DNase I (10 U) served as negative and positive controls, respectively."}, "PMNs [6]": {"tested_on": "PMNs", "assay": "Propidium iodide determination of PMN viability (membrane integrity)", "conditions": "oxyMb 30 μg/mL, PMA 2 h", "protocol": "(§1) PMNs were incubated with and without L-NMMA (5 mM) and oxyMb (1-1000 μg/mL) for 10 min at 37° C. followed by PMA (200 nM) for 2 h at 37° C. Membrane integrity was determined flow cytometry analyses after a 2-3 min treatment with PI (0.75 mM)."}, "PMNs [7]": {"tested_on": "PMNs", "assay": "Total nitrite/nitrate levels in filtrates of PMA-stimulated PMNs", "conditions": "oxyMb 30 μg/mL", "protocol": "Total nitrate and nitrite levels in filtrates of PMNs were determined by reducing the nitrate to nitrite by nitrate reductase and reacting the resulting nitrite with 2,3-diaminonaphthalene to form a fluorescent product. PMNs (500,000/300 ul HBSS) were treated with oxyMb (1-1000 µg/mL) and SOD (30 U) for 10 min followed by PMA (200 nM) for 1 h at 30° C. Filtrates were collected by centrifugation at 16,000 g for 15 min through Ultrafree-MC 10,000 NMWL filters (Millipore, Bedford, Mass.). Total nitrite levels were determined with a 96-well fluorescence analyzer (IDEXX, Westbrook, Me.). PMNs exposed to the same treatment were analyzed by flow cytometry for DCFH oxidation."}, "PMNs [8]": {"tested_on": "PMNs", "assay": "Phosphatidylserine externalization on PMN plasma membrane (annexin V)", "conditions": "oxyMb 30 μg/mL, PMA 1 h", "protocol": "Levels of phosphatidylserine on the outer surface of plasma membrane were determined by FITC-labeled annexin V (8 μg per 300,000 PMNs/100 μL) according to manufacturer's instructions (Caltag Laboratories, Burlingame, Calif.). PMNs were incubated with and without L-NMMA (5 mM) and oxyMb (1-1000 μg/mL) for 10 min at 37° C. followed by PMA (200 nM) for 1 h at 37° C. PMNs were then incubated with annexin V for 30 min and propidium iodide (0.75 mM) for 2-3 min at 4° C. prior to flow cytometric analyses."}, "PMNs [9]": {"tested_on": "PMNs", "assay": "ATP levels in PMA-activated PMNs (bioluminescent somatic cell assay)", "conditions": "oxyMb 30 μg/mL, PMA 2 h", "protocol": "OxyMb effect on ATP levels in PMA-activated PMNs was measured using the Bioluminescent Somatic Cell Assay Kit according to the manufacturer's instructions. PMNs were incubated with and without L-NIO (5 mM) and oxyMb (1-1000 μg/mL) for 10 min at 37° C. PMNs were subsequently treated with PMA (200 nM) for 2 h at 37° C. PMNs were lysed, frozen at −20° C. and analyzed within 24 h. Emitted light was determined in a camera luminometer, Tropix (Redford, Mass.) using Panchromatic black and white, ISO 20,000, type 612 film, Polaroid (Cambridge, Mass.) with an exposure time of 2.5 min. Level of exposure was measured and digitized with a solid state camera, COHU (San Diego, Calif.) and analyzed using the public domain NIH Image 1.55 program. Statistical analysis. All values are presented as mean±SEM. The Kolmogorov-Smirnov test was used to verify the normal distribution of the data. Groups were compared by using analysis of variance with the Fisher least significant difference (LSD) post hoc procedure. Statistical significance was accepted at P values<0.05."}, "lymphocytes": {"tested_on": "lymphocytes", "assay": "Plasma membrane integrity of lymphocytes co-incubated with PMA-activated, oxyMb-treated PMNs", "conditions": "oxyMb 30 μg/mL", "protocol": "as §1\nA mixed PMN/lymphocyte preparation was used to determine if the NO. produced by PMNs could affect the plasma membrane integrity of neighboring lymphocytes. PMA-activated and oxyMb (30 μg/mL)-treated PMNs decreased lymphocyte plasma membrane integrity as the ratio of PMNs/lymphocyte increased from 0:1 (76%) to 4:1 (68%) to 10:1 (61%)."}, "[10]": {"conditions": "LPS and TNFα-stimulated PMNs, 30 ug/mL oxyMb"}}}
{"substance": "Bovine liver SOD: bovine liver Cu, Zn superoxide dismutase", "values": [{"measurement": "effect on DCF fluorescence at highest SOD concentration", "setting": "PMNs [1]", "result": "reduced DCF fluorescence below control levels"}, {"measurement": "potency in reducing extracellular O2.− relative to oxyMb", "setting": "PMNs [2]", "result": "100-1000 fold"}, {"measurement": "SOD concentration producing peak levels of DCFH oxidation", "setting": "PMNs [3]; PMA-stimulated PMNs, in the presence of 30 μg/mL oxyMb", "result": 300, "unit": "U/mL"}]}
{"substance": "fluorescein-5-EX succinimidyl ester conjugated to oxyhemoglobin [OxyHb-FLEX]", "values": [{"measurement": "OxyHb-FLEX bound to and internalized into PMA-stimulated PMNs relative to unstimulated PMNs", "setting": "PMNs [4]", "result": "2-6 fold"}]}
{"substance": "oxymyoglobin [oxyMb]", "values": [{"measurement": "PMNs containing DNA strand breaks", "setting": "PMNs [5]", "result": 50, "unit": "%"}, {"measurement": "PMNs containing DNA strand breaks, greater than PMNs without oxyMb", "setting": "PMNs [5]", "result": 4, "unit": "fold"}, {"measurement": "PMN plasma membrane damage (reduced viability)", "setting": "PMNs [6]", "result": 87, "unit": "%"}, {"measurement": "PMN plasma membrane damage, higher than PMNs without oxyMb", "setting": "PMNs [6]", "result": 3, "unit": "fold"}, {"measurement": "nitrite levels compared with untreated PMNs", "setting": "PMNs [7]", "result": "doubling"}, {"measurement": "oxyMb concentration at which DCFH oxidation peaked", "setting": "PMNs [3]; LPS and TNFα-stimulated PMNs", "result": 30, "unit": "µg/mL"}, {"measurement": "increase in DCFH oxidation compared with 0 μg/mL oxyMb", "setting": "PMNs [3]; [10]", "result": "approximately 6 fold"}, {"measurement": "increase in DCFH oxidation compared with 1000 μg/mL oxyMb", "setting": "PMNs [3]; [10]", "result": "~3", "unit": "fold"}, {"measurement": "oxyMb concentration of peak response in DCFH oxidation", "setting": "PMNs [3]; PMA-stimulated PMNs", "result": 30, "unit": "µg/mL"}, {"measurement": "increase in DCFH oxidation compared with 0 and 1000 μg/mL oxyMb", "setting": "PMNs [3]; PMA-stimulated PMNs", "result": "approximately 3 fold"}, {"measurement": "DCFH fluorescence relative to control levels", "setting": "PMNs [3]; oxyMb 100 μg/mL in the presence of albumin, data not shown", "result": 5, "unit": "times"}, {"measurement": "increase in DCFH oxidation compared with 0 and 1000 μg/mL oxyMb", "setting": "PMNs [3]; unstimulated PMNs", "result": "approximately 4 fold"}, {"measurement": "phosphatidylserine positive PMNs", "setting": "PMNs [8]", "result": 20, "unit": "%"}, {"measurement": "phosphatidylserine positive PMNs, greater than PMNs without oxyMb", "setting": "PMNs [8]", "result": 5, "unit": "fold"}, {"measurement": "intracellular ATP levels", "setting": "PMNs [9]", "result": "6 ng/300,000 PMNs"}, {"measurement": "intracellular ATP levels, lower than PMNs without oxyMb", "setting": "PMNs [9]", "result": 9, "unit": "fold"}, {"measurement": "lymphocyte plasma membrane integrity", "setting": "lymphocytes; PMNs/lymphocyte ratio 0:1, PMA", "result": 76, "unit": "%"}, {"measurement": "lymphocyte plasma membrane integrity", "setting": "lymphocytes; PMNs/lymphocyte ratio 4:1, PMA", "result": 68, "unit": "%"}, {"measurement": "lymphocyte plasma membrane integrity", "setting": "lymphocytes; PMNs/lymphocyte ratio 10:1, PMA", "result": 61, "unit": "%"}]}
